≈ marks a conversion by molar mass, not a printed value. One block for each compound: values may come before it.
Key:
[1] = test system: Plasmodium falciparum; assay: Antimalarial activity against Plasmodium falciparum 3D7 assessed as parasite growth inhibition; assay type: functional, organism-based
[2] = test system: Plasmodium falciparum; assay: Antimalarial activity against Plasmodium falciparum K1 assessed as parasite growth inhibition; assay type: functional, organism-based
[3] = test system: Plasmodium falciparum; assay: Antimalarial activity against CQ-sensitive Plasmodium falciparum 3D7 at trophozoite stage infected in O+ human erythrocytes assessed as parasite growth inhibition in presence of 297 uM thiamine by SYBR staining based analysis; assay type: functional, organism-based; conditions: 3D7, Erythrocyte
[4] = test system: Plasmodium falciparum; assay: Antimalarial activity against Plasmodium falciparum D6; assay type: functional, organism-based
[5] = test system: Plasmodium falciparum; assay: Antimalarial activity against Plasmodium falciparum W2; assay type: functional, organism-based
[6] = test system: Plasmodium falciparum; assay: Antimalarial activity against CQ-sensitive Plasmodium falciparum 3D7 infected in O+ human RBCs assessed as parasite growth inhibition by SYBR Green I staining based assay; assay type: functional, organism-based; conditions: 3D7, Erythrocyte
[7] = test system: Plasmodium falciparum; assay: Antimalarial activity against CQ-resistant Plasmodium falciparum RKL9 infected in O+ human RBCs assessed as parasite growth inhibition by SYBR Green I staining based assay; assay type: functional, organism-based; conditions: RKL9, Erythrocyte
[8] = test system: Plasmodium falciparum; assay: Antimalarial activity against Plasmodium falciparum 3D7 by SYBR green dye based analysis; assay type: functional, organism-based
[9] = test system: Plasmodium falciparum; assay: Antiplasmodial activity against Plasmodium falciparum 3D7 at asexual erythrocytic stage infected in human erythrocytes assessed as parasite growth inhibition incubated for 42 hrs by [3H]-hypoxanthine incorporation assay; assay type: functional, organism-based; conditions: 3D7, Erythrocyte
[10] = Cytotoxicity against human Huh-7 cells by MTT assay; assay type: toxicity, cell-based
[11] = test system: Plasmodium falciparum; assay: Antimalarial activity against CQ-sensitive Plasmodium falciparum 3D7 at trophozoite stage infected in O+ human erythrocytes assessed as parasite growth inhibition in presence of 2.97 uM thiamine by SYBR staining based analysis; assay type: functional, organism-based; conditions: 3D7, Erythrocyte
[12] = Cytotoxicity against African green monkey Vero cells after 72 hrs by MTT assay; assay type: toxicity, cell-based; conditions: chlorocebus sabaeus
[13] = test system: Plasmodium falciparum; assay: Antimalarial activity against Plasmodium falciparum 3D7 infected in A+ human erythrocytes assessed as reduction in parasite growth incubated for 72 hrs by SYBR Green I staining based analysis; assay type: functional, organism-based; conditions: 3D7, Erythrocyte
[14] = test system: Plasmodium falciparum; assay: Antimalarial activity against Plasmodium falciparum Dd2 infected in A+ human erythrocytes assessed as reduction in parasite growth incubated for 72 hrs by SYBR Green I staining based analysis; assay type: functional, organism-based; conditions: Dd2, Erythrocyte
[15] = Cytotoxicity against human erythrocytes; assay type: toxicity, cell-based, Erythrocyte
[16] = test system: Plasmodium knowlesi; assay: Antimalarial activity against Plasmodium knowlesi A1H1; assay type: functional, organism-based
[17] = test system: Plasmodium falciparum; assay: Antiplasmodial activity against CQ-susceptible Plasmodium falciparum 3D7 assessed as parasite growth inhibition incubated for 72 hrs by SYBR Green I staining based analysis; assay type: functional, organism-based; conditions: 3D7, 72 h
[18] = test system: Plasmodium falciparum; assay: Antiplasmodial activity against CQ-resistant Plasmodium falciparum W2 assessed as parasite growth inhibition incubated for 72 hrs by SYBR Green I staining based analysis; assay type: functional, organism-based; conditions: W2, 72 h
[19] = Cytotoxicity against African green monkey Vero cells assessed as cell growth inhibition incubated for 24 hrs by fluorescence based assay; assay type: toxicity; conditions: African green monkey (Chlorocebus sabaeus)
[20] = test system: Plasmodium falciparum; assay: Antimalarial activity against Plasmodium falciparum NF54 infected in human erythrocytes assessed as inhibition of parasitemia by giemsa staining based analysis; assay type: functional, organism-based; conditions: NF54, Erythrocyte
[21] = test system: Plasmodium falciparum; assay: Antiplasmodial activity against CQ-sensitive Plasmodium falciparum NF54 at asexual erythrocyte stage by LDH assay; assay type: functional, organism-based
[22] = test system: Plasmodium falciparum; assay: Antiplasmodial activity against CQ-resistant Plasmodium falciparum K1 at asexual erythrocyte stage by LDH assay; assay type: functional, organism-based

Structure (SMILES): COc1cc(/C=C/C(=O)c2ccc(Cl)cc2)ccc1OCc1cn(-c2ccnc3cc(Cl)ccc23)nn1
IC50 [1]: 4.12 µM
IC50 [2]: 3.55 µM

Structure (SMILES): Cc1ncc(Cn2cc(CCOC(=O)c3ccccc3)nn2)c(N)n1
IC50 [3]: > 200 µM

IC50 [4]: 11.2 µM
IC50 [5]: 6.67 µM
Structure (SMILES): CCCCCCCCCn1cc(C(=O)OC)nn1

Structure (SMILES): COc1ccccc1C(=O)/C=C/c1cn(Cc2cn(-c3ccnc4cc(Cl)ccc34)nn2)c2ccccc12
IC50 [6]: 2440 nM
IC50 [7]: 3.55 µM

Structure (SMILES): C[C@@H]1CC[C@H]2[C@@H](C)C(=O)O[C@@H]3O[C@@]4(C)CC[C@@H]1[C@]32OO4 [ARTEMISININ]
IC50 [5]: 0.094 µM

IC50 [4]: 13.3 µM
IC50 [5]: 6.63 µM
Structure (SMILES): CCCCCCCn1cc(CO)nn1

IC50 [8]: 176 µM
Structure (SMILES): CCOC(=O)c1n[nH]c(-c2ccccn2)n1

Structure (SMILES): Cc1cc(C)nc(NS(=O)(=O)c2ccc(-n3cc(COc4ccc([N+](=O)[O-])cc4)nn3)cc2)n1
IC50 [9]: 6.2 µg/mL (≈ 12.9 µM)
CC50 [10]: 7.5 µg/mL (≈ 15.6 µM)

Structure (SMILES): Cc1ncc(Cn2cc(CCOC(=O)c3cccc(Cl)c3)nn2)c(N)n1
IC50 [11]: 62 µM
IC50 [3]: 79 µM

Structure (SMILES): CCN(CC)CCCC(C)Nc1ccnc2cc(Cl)ccc12 (centres undefined) [CHLOROQUINE]
CC50 at 72 h [12]: 112 µM
EC50 [13]: 12.7 nM
EC50 [14]: 166 nM
CC50 [15]: > 100 µg/mL
EC50 [16]: 0.21 µM

Structure (SMILES): OB1OCc2cc(OCc3cn(CCNc4ccnc5cc(Cl)ccc45)nn3)ccc21
IC50 [17]: 4.15 µM
IC50 [18]: 3.78 µM
IC50 at 24 h [19]: > 100 µM

Structure (SMILES): OB1OCc2cc(OCc3cn(CCN4CCN(c5ccnc6cc(Cl)ccc56)CC4)nn3)ccc21
IC50 [17]: 5.31 µM
IC50 [18]: 4.86 µM
IC50 at 24 h [19]: 82.4 µM

IC50 [20]: 42.6 µM
Structure (SMILES): Clc1ccc2c(Nc3nc[nH]n3)cccc2c1

Structure (SMILES): Clc1ccc2c(NCCn3cc(-c4ccnc(-c5ccccn5)c4)nn3)ccnc2c1
IC50 [21]: 98 nM
IC50 [22]: 275 nM

EC50 [16]: 28.9 µM
Structure (SMILES): O=C1CC(c2n[nH]c(=S)n2-c2ccccc2)CN1Cc1ccccc1 (centres undefined)

Structure (SMILES): Cc1ccccc1C(=O)/C=C/c1cn(Cc2cn(-c3ccnc4cc(Cl)ccc34)nn2)c2ccccc12
IC50 [6]: 1810 nM
IC50 [7]: 2.72 µM

Structure (SMILES): COc1cc(/C=C/C(=O)c2cc3ccccc3oc2=O)ccc1OCc1cn(-c2ccnc3cc(Cl)ccc23)nn1
IC50 [1]: > 5 µM
IC50 [2]: > 5 µM

— ChEMBL document CHEMBL5512597, “Triazole hybrid compounds: A new frontier in malaria treatment” (Eur J Med Chem, 2023)
